In PubChem BioAssay AID330 (DTP/NCI, 2004):
Several values for one entry are separate records, joined by “and”; a condition that tells them apart may be missing. Equal entries are not always repeated. Toxic doses and inconclusive results are not listed. The calls were made as follows: active = survival T/C of 150% or more; inactive = T/C below 125% in these data. Square brackets hold non-standard residues; d marks the D form. Peptide text beside a SMILES is read from it. * marks the point of attachment. ξ: configuration not given here. Nphe = O=C(O)CNCc1ccccc1; ξL = CC(C)CC(N)C(=O)O; Ms = CS(=O)(=O)*

Test system: P388 leukemia ip, CD2F1 mice, survival T/C
Assay: NCI In Vivo Anticancer Drug Screen. Data for tumor model P388 Leukemia (intraperitoneal) in CD2F1 (CDF1) mice
Settings: endpoint: median survival time, higher = longer survival
In short: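 Mice carrying the transplanted tumor received test compound or vehicle. Survival was recorded in each group, and the value is the treated-group measurement divided by that of the vehicle-treated control group.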

[1] = dose: 50.0 mg/kg/injection, schedule: Q01DX005 (ip), vehicle: saline with Tween-80
[2] = dose: 100.0 mg/kg/injection, schedule: Q01DX005 (ip), vehicle: saline with Tween-80
[3] = dose: 200.0 mg/kg/injection, schedule: Q01DX005 (ip), vehicle: saline with Tween-80
[4] = dose: 60.0 mg/kg/injection, schedule: Q01DX005 (ip), vehicle: saline with Tween-80
[5] = dose: 120.0 mg/kg/injection, schedule: Q01DX005 (ip), vehicle: saline with Tween-80
[6] = dose: 240.0 mg/kg/injection, schedule: Q01DX005 (ip), vehicle: saline with Tween-80

Measured: T/C

CCCCCCC(/C=C/c1ccc(Cl)c(Cl)c1)=N\NC(N)=S
inactive: dose: 50.0 mg/kg/injection, schedule: Q01DX009 (ip), vehicle: saline 105 % of control | dose: 100.0 mg/kg/injection, schedule: Q01DX009 (ip), vehicle: saline 106 % of control | dose: 200.0 mg/kg/injection, schedule: Q01DX009 (ip), vehicle: saline 107 % of control

O=c1n(-c2ccccc2)c(=O)n2n1C1CC3c4ccccc4C1C2C31CC1 (stereo not given)
inactive: [1] 104 % of control | [2] 101 % of control | [3] 92 % of control

O=C1CCCC1C(=O)c1ccccc1.O=C1CCCC1C(=O)c1ccccc1.[Cu] (stereo not given)
inactive: dose: 12.5 mg/kg/injection, schedule: Q01DX009 (ip), vehicle: Klucel (hydroxypropylcellulose) (HPC) 103 % of control | dose: 25.0 mg/kg/injection, schedule: Q01DX009 (ip), vehicle: Klucel (hydroxypropylcellulose) (HPC) 100 % of control | dose: 50.0 mg/kg/injection, schedule: Q01DX009 (ip), vehicle: Klucel (hydroxypropylcellulose) (HPC) 100 % of control and 109 % of control | dose: 100.0 mg/kg/injection, schedule: Q01DX009 (ip), vehicle: Klucel (hydroxypropylcellulose) (HPC) 116 % of control

CC1CN(Cc2ccccc2)CC(C)N1Cc1ccccc1 (stereo not given)
inactive: [1] 103 % of control | [2] 105 % of control | [3] 103 % of control

O=c1[nH]cnc2c1nnn2C1OC(CO)C(O)C1O (stereo not given)
inactive: dose: 25.0 mg/kg/injection, schedule: Q01DX005 (ip), vehicle: saline 102 % of control and 105 % of control | dose: 50.0 mg/kg/injection, schedule: Q01DX005 (ip), vehicle: saline 107 % of control and 111 % of control | dose: 100.0 mg/kg/injection, schedule: Q01DX005 (ip), vehicle: saline 114 % of control and 118 % of control | dose: 200.0 mg/kg/injection, schedule: Q01DX005 (ip), vehicle: saline 111 % of control and 116 % of control | dose: 400.0 mg/kg/injection, schedule: Q01DX005 (ip), vehicle: saline 100 % of control

CC(/C=N\Nc1ccc(Cl)cc1)=N/NC(=O)C[N+](C)(C)C
inactive: dose: 100.0 mg/kg/injection, schedule: Q04DX002 (ip), vehicle: saline 101 % of control | dose: 200.0 mg/kg/injection, schedule: Q04DX002 (ip), vehicle: saline 100 % of control | dose: 400.0 mg/kg/injection, schedule: Q04DX002 (ip), vehicle: saline 92 % of control

C=C(C)CC1(C)C(=O)CCC1O (stereo not given)
inactive: [4] 104 % of control | [5] 102 % of control | [6] 106 % of control

CCCCCCC(=O)/C=C/c1ccccc1OC(=O)c1ccc(Cl)cc1
inactive: dose: 25.0 mg/kg/injection, schedule: Q01DX009 (ip), vehicle: saline with Tween-80 101 % of control | dose: 50.0 mg/kg/injection, schedule: Q01DX009 (ip), vehicle: saline with Tween-80 88 % of control and 90 % of control | dose: 100.0 mg/kg/injection, schedule: Q01DX009 (ip), vehicle: saline with Tween-80 95 % of control | dose: 200.0 mg/kg/injection, schedule: Q01DX009 (ip), vehicle: saline with Tween-80 94 % of control

CC(C)(C)[Si](C)(C)OCc1ccccc1N1C(=O)C(N=[N+]=[N-])C1/C=C/c1ccccc1 (stereo not given)
inactive: dose: 6.25 mg/kg/injection, schedule: Q01DX001 (ip), vehicle: Klucel (hydroxypropylcellulose) (HPC) 101 % of control | dose: 12.5 mg/kg/injection, schedule: Q01DX001 (ip), vehicle: Klucel (hydroxypropylcellulose) (HPC) 103 % of control | dose: 25.0 mg/kg/injection, schedule: Q01DX001 (ip), vehicle: Klucel (hydroxypropylcellulose) (HPC) 94 % of control | dose: 50.0 mg/kg/injection, schedule: Q01DX001 (ip), vehicle: Klucel (hydroxypropylcellulose) (HPC) 101 % of control | dose: 100.0 mg/kg/injection, schedule: Q01DX001 (ip), vehicle: Klucel (hydroxypropylcellulose) (HPC) 98 % of control | dose: 400.0 mg/kg/injection, schedule: Q01DX001 (ip), vehicle: saline with Tween-80 89 % of control

CC(C)C1=CC(=O)C2=C(CCC3C4=C(CCC23C)C(=O)OC4)C1=O (stereo not given)
inactive: dose: 6.25 mg/kg/injection, schedule: Q01DX009 (ip), vehicle: DMSO 105 % of control | dose: 12.5 mg/kg/injection, schedule: Q01DX009 (ip), vehicle: DMSO 113 % of control | dose: 25.0 mg/kg/injection, schedule: Q01DX009 (ip), vehicle: DMSO 98 % of control

CC(C)CC(NC(=O)CN(Cc1ccccc1)S(C)(=O)=O)C(=O)O (stereo not given) (Ms-[Nphe]-[ξL]-OH)
inactive: dose: 12.5 mg/kg/injection, schedule: Q01DX009 (ip), vehicle: other 100 % of control | dose: 25.0 mg/kg/injection, schedule: Q01DX009 (ip), vehicle: other 104 % of control | dose: 50.0 mg/kg/injection, schedule: Q01DX009 (ip), vehicle: other 114 % of control | dose: 100.0 mg/kg/injection, schedule: Q01DX009 (ip), vehicle: other 104 % of control | dose: 200.0 mg/kg/injection, schedule: Q01DX009 (ip), vehicle: other 100 % of control

COc1nsc2ccc(C(C)C(N)=O)cc12 (stereo not given)
inactive: [4] 100 % of control | [5] 97 % of control | [6] 89 % of control
